This assay has as its system LLC1 cells. Kind of assay: Coculture of liposome-treated LLC1 cells with lymphocytes from H250-vaccinated C57BL/6 mice, IFNγ secretion. The assay is classed as cell-based, mouse. Conditions: LLC1 cells treated with H1299.3-targeted liposomes containing H250 in presence of inhibitor, fixed, cocultured with lymphocytes. As to the method: We then generated murine CD8+ cells with TCR that recognizes MHC class I loaded H250 (1) by vaccinating C57BL/6 mice with an extended version of H250 and subsequently harvesting lymphocytes as a source of CD8+ T cells. LLC1 cells were treated with control or H1299.3-targeted liposomes containing H250, washed, and then incubated.
After allowing trafficking of the peptides to occur, the LLC1 cells were fixed and cocultured with lymphocytes as previously described.

These results are taken from patent US10925960B2, “Antigen delivery system” (SRI INTERNATIONAL, priority 2014, dated 2021).

Consider `CCN(CC)CCCC(C)Nc1ccnc2cc(Cl)ccc12` (stereo not drawn) [chloroquine], for which the “Effect of inhibitor on IFNγ secretion / H250 presentation” value is “significant reduction in IFNγ secretion”.

Regarding `CN(C)CCCN1c2ccccc2Sc2ccc(Cl)cc21` [Chlorpromazine], the “Effect of inhibitor on IFNγ secretion / H250 presentation” value is recorded as “reduced presentation”.

As to `C[C@@H]1[C@H](O)[C@@H](C)/C=C/C=C/CC/C=C/C=C/C=C/C=C/C(O[C@H]2O[C@H](C)[C@@H](O)[C@H](N)[C@@H]2O)CC2O[C@](O)(CC(O)C(O)CCC(O)CC(O)CC(O)CC(=O)O[C@H]1C)CC(O)C2C(=O)O` (stereo partly drawn) [Nystatin], the “Effect of inhibitor on IFNγ secretion / H250 presentation” value is given as “no effect”.
